Read-outs that look alike come from different tables or passages of the source.

What all share (type): cell-based
Assay [1] relates to HCC827 cells (EGFR Exon19 del, non-small cell lung cancer cells). Put plainly: Cell viability assay (WST/CCK8), HCC827 cells. To be noted: Homo sapiens, HCC827, 72 h, HCC827 (Exon19 Del), 72 hours, read-out: IC50 (half inhibitory concentration). The method in brief:
(§1)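 Cells seeded at 3 000/well in RPMI1640 complete medium, dosed next day with compounds (top 10 μM, 3-fold, 10 points) for 72 h. Viability read with WST (CCK8) reagent; DMSO as negative control, EGFR TKIs as positive controls; IC50 determined.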

In assay [2] the test system is PC9 cells (EGFR Exon 19 del, non-small cell lung cancer cells). Put plainly: Cell viability assay (WST/CCK8), PC9 cells. Particulars: Homo sapiens, PC-9, PC9 (Exon19 Del), 72 hours, read-out: IC50 (half inhibitory concentration). The method in brief: as §1
The subject of assay [3] is PC9BracA1 (EGFR Exon 19 del+T790M, non-small cell lung cancer cells). Put plainly: Cell viability assay (WST/CCK8), PC9Brac1 cells. To be noted: read-out: IC50 (half inhibitory concentration). The method in brief: (§2)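 Cells seeded at 3 000 per well in RPMI1640 complete medium, dosed next day with compounds at indicated concentrations (DMSO negative control, EGFR TKIs as positive control).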

Assay [4] has as its target T1, EGFR (L858R+T790M) in H1975 cells (Homo sapiens, UniProt P00533, L858R/T790M).
T1 construct: determined in H1975 cells with the EGFR L858R+T790M mutation; endogenous in cells; host or cells: H1975
Put plainly: Western blot of EGFR protein level (degradation), H1975 cells. To be noted: 16 hours; for EGFR degradation (EGFR level, western blot): H1975 cells, 1, 10, 50, 100, 500 nM; for DC50: H1975 cells, western blot. As for the experimental part: Cancer cells were planted in 12-well-plate at the density of 0.15 million cells per well with 1 mL RPMI1640 completed culture medium. Compounds with different concentrations (DMSO as a solution system, and 1 μL of compounds of different concentrations was added to 1 mL of the cell culture medium) were added to the cells planted one day before. 16 hours after treated, the medium was discarded and the cells were washed with precooled PBS. The cells were placed on ice and treated with RIPA protein lysis buffer containing halt protease and phosphatase inhibitor. After centrifugation at 10000 rpm at 4° C. for 10 minutes, the supernatant was collected. The same amount of proteins were added into 4×SDS loading buffer and heated at 95° C. for 5 minutes for denaturation, and the samples were stored at −20° C. after denaturation, or directly conducted protein electrophoresis. The 4-20% gradient preformed Electrophoretic gels were purchased from Kingsy. The electrophoresis tank and related components were purchased from Bio-rad company, and the electrophoresis condition was isobaric 120V for 2 hours. PVDF membrane was used for the transmembrane, and the whole transmembrane process was carried out on ice with a constant current of 0.4 amperes for an hour. The membrane was blocked with 5% skimmed milk dilution with TBST buffer. Refer to the corresponding antibody instructions for the specific steps of immunoblotting.
The degradation efficacy of the dacomitinib-based compounds on EGFR was determined in HCC827 and H1975 cell lines, which harboring EGFR Exon 19del and EGFR L858R+T790M mutations respectively.
In FIG. 2, concentration-dependent degradation assays were performed on non-small cell lung cancer cell line H1975 (T790M-mutant cell line, the most common mutation type of first-generation EGFR inhibitors). […] The DC50 of compounds SIAIS262032 and SIAIS262037 are both about 50 nM, which provides great potential for drug development to overcome drug resistance caused by EGFR T790M mutation.
The degradation efficacy of the canertinib-based compounds on EGFR was determined in H1975 cells with the EGFR L858R+T790M mutation.
The H1975 cells were treated with the PROTADs with different concentrations (1, 10, 50, 100, 500 nM) for 16 hours, and then the western blot assay was taken to estimate the EGFR levels of the cell lysates in each group. […] The DC50 of SIAIS262125 and SIAIS262182 are both less than 10 nM, much better than canertinib, which provides great potential for drug development to overcome drug resistance caused by EGFR T790M mutation.

The test system of assay [5] is H1975 (EGFR T790M+L858R mutation, non-small cell lung cancer cell line). Put plainly: Cell viability assay (WST/CCK8), H1975 cells. Particulars: Homo sapiens, NCI-H1975, H1975 (L858R + T790M), read-out: IC50 (half inhibitory concentration). The method in brief:
as §2

Assay [6] has as its system BT474 cells (HER2 positive breast cancer cells). Nature of the assay: Cell viability assay (CCK8), BT474 cells. To be noted: for IC50: Homo sapiens, BT-474, Table 10, BT474, 72 hours, read-out: IC50 (half inhibitory concentration). The method in brief: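 HER2-overexpressing BT474 cells in RPMI1640 were exposed to compounds for 72 hours over 10 concentrations (3-fold dilution, top 10 μM). Viability was measured with CCK8 reagent against a DMSO control, and IC50 was taken from growth inhibition curves.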

Assay [7] addresses EGFR (Exon 19del) in HCC827 cells (Homo sapiens, UniProt P00533, DEL746-750). Put plainly: Western blot of EGFR protein level (degradation), HCC827 cells. Particulars: HCC827 cells, 1, 10, 50, 100, 500 nM, 16 hours.
Procedure: Cancer cells were planted in 12-well-plate at the density of 0.15 million cells per well with 1 mL RPMI1640 completed culture medium. Compounds with different concentrations (DMSO as a solution system, and 1 μL of compounds of different concentrations was added to 1 mL of the cell culture medium) were added to the cells planted one day before. 16 hours after treated, the medium was discarded and the cells were washed with precooled PBS. The cells were placed on ice and treated with RIPA protein lysis buffer containing halt protease and phosphatase inhibitor. After centrifugation at 10000 rpm at 4° C. for 10 minutes, the supernatant was collected. The same amount of proteins were added into 4×SDS loading buffer and heated at 95° C. for 5 minutes for denaturation, and the samples were stored at −20° C. after denaturation, or directly conducted protein electrophoresis. The 4-20% gradient preformed Electrophoretic gels were purchased from Kingsy. The electrophoresis tank and related components were purchased from Bio-rad company, and the electrophoresis condition was isobaric 120V for 2 hours. […]
The degradation efficacy of the dacomitinib-based compounds on EGFR was determined in HCC827 and H1975 cell lines, which harboring EGFR Exon 19del and EGFR L858R+T790M mutations respectively. […]
Where [8] appears, read: PC9Brac1 (Ex19del + T790M), 72 hours, WST.
Setting [9] is: Table 6, canertinib-based compounds, WST.
Where [10] appears, read: Table 7, canertinib-based compounds.
Setting [11] is: Table 7, canertinib-based compounds, PC9Brca1 (Ex19del + T790M).

T1 sequence (P00533 25-1210 T790M/L858R): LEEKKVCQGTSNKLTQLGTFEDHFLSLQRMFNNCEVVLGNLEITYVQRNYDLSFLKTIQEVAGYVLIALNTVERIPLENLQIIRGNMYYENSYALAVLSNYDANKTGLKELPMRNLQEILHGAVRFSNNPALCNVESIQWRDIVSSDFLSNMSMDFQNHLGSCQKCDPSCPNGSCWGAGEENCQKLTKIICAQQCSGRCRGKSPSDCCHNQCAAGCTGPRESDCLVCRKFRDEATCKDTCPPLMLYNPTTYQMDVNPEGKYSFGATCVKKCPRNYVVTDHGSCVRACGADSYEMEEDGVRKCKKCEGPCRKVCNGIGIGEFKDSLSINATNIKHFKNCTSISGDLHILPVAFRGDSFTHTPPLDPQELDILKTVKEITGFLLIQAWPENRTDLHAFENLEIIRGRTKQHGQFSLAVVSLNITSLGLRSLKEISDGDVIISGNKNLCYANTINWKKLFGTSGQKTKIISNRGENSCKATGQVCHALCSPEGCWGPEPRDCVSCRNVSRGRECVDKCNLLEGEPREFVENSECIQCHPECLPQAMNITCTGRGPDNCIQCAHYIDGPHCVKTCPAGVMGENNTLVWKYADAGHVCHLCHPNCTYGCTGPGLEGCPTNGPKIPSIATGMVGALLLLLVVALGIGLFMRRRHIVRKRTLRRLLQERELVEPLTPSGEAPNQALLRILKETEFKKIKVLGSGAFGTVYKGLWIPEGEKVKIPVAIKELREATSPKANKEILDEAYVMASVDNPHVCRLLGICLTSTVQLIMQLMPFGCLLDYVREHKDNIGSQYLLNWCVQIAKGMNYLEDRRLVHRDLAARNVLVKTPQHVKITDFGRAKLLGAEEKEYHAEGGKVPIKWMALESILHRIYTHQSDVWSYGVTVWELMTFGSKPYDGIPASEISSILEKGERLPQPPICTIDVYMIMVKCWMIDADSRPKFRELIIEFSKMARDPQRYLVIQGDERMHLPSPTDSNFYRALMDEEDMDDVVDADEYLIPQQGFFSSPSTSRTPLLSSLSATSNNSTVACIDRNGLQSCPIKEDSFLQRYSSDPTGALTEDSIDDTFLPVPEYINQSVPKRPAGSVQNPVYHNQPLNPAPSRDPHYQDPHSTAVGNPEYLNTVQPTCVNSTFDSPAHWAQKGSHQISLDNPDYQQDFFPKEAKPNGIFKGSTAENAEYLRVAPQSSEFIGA
EGFR (Exon 19del) in HCC827 cells, sequence (P00533 with tags, fused parts or gaps DEL746-750): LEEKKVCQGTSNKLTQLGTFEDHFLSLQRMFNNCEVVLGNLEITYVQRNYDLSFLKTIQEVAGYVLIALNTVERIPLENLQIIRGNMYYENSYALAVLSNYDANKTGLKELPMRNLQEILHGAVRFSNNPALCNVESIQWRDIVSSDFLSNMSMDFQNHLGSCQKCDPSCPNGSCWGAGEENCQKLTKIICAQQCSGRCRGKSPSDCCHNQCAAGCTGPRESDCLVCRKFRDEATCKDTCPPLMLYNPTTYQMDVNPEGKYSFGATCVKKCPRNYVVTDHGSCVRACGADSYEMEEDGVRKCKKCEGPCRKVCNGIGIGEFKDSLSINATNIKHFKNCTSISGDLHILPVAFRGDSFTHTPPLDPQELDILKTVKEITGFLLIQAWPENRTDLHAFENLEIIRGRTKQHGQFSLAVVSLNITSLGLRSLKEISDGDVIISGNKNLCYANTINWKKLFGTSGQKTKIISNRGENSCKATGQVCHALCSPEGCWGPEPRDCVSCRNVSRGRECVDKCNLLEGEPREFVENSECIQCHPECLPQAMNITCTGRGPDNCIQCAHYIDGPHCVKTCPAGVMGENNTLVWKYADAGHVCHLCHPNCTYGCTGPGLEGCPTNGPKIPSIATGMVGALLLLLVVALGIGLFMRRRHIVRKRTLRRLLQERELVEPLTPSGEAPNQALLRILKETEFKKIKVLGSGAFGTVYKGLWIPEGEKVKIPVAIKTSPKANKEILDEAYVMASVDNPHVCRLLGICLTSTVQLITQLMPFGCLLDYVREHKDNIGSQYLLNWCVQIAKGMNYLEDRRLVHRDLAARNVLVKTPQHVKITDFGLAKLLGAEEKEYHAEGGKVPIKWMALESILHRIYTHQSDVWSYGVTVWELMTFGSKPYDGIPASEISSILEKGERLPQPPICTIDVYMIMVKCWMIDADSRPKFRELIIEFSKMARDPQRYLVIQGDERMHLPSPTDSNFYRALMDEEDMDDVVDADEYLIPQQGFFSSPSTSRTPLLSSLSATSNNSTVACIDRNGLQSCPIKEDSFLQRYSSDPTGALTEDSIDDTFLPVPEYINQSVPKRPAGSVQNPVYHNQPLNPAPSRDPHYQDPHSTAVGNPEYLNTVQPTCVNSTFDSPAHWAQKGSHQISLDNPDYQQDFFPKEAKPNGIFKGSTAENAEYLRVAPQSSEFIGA

For `COc1cc2ncnc(Nc3ccc(F)c(Cl)c3)c2cc1NC(=O)/C=C/CN1CCC(N2CCN(C(=O)CCCCCSc3cccc4c3C(=O)N(C3CCC(=O)NC3=O)C4=O)CC2)CC1` (stereo not shown) [SIAIS262032, (E)-N-(4-((3-chloro-4-fluorophenyl)amino)-7-methoxyquinazolin-6-yl)-4-(4-(4-(6-((2-(2,6-dioxopiperidin-3-yl)-1,3-dioxoisoindolin-4-yl)thio)hexanoyl)piperazin-1-yl)piperidin-1-yl)but-2-enamide], the values for the IC50 in assay [1] (WST (CCK8)), in assay [2] (WST (CCK8)) and in assay [3] (setting [8]) were 3.3 nM, 43.5 nM and 438 nM, respectively. Besides, the “EGFR degradation (EGFR level, western blot)” value (from here on “EGFR degradation”) in assay [4] is recorded as “obvious EGFR degradation efficacy”. The compound also showed a DC50 in assay [4] of around 50 nM.
In the case of `COc1cc2ncnc(Nc3ccc(F)c(Cl)c3)c2cc1NC(=O)/C=C/CN1CCC(N2CCN(C(=O)CCCCCSc3cccc4c3CN(C3CCC(=O)NC3=O)C4=O)CC2)CC1` (stereo not shown) [SIAIS262035, (E)-N-(4-((3-chloro-4-fluorophenyl)amino)-7-methoxyquinazolin-6-yl)-4-(4-(4-(6-((2-(2,6-dioxopiperidin-3-yl)-1-oxoisoindolin-4-yl)thio)hexanoyl)piperazin-1-yl)piperidin-1-yl)but-2-enamide], the IC50 in assay [1] (WST (CCK8)) came to 2.2 nM; in assay [2] (WST (CCK8)) it was 6.1 nM; in assay [5] (72 hours, WST) it was 514 nM; in assay [3] (setting [8]), 491 nM; in assay [6], 2.1 nM. In assay [4], the “EGFR degradation” value is “obvious EGFR degradation efficacy”.
In the case of `COc1cc2ncnc(Nc3ccc(F)c(Cl)c3)c2cc1NC(=O)/C=C/CN1CCC(N2CCN(C(=O)CCCCCCNc3cccc4c3C(=O)N(C3CCC(=O)NC3=O)C4=O)CC2)CC1` (stereo not shown) [SIAIS262037, (E)-N-(4-((3-chloro-4-fluorophenyl)amino)-7-methoxyquinazolin-6-yl)-4-(4-(4-(7-((2-(2,6-dioxopiperidin-3-yl)-1,3-dioxoisoindolin-4-yl)amino)heptanoyl)piperazin-1-yl)piperidin-1-yl)but-2-enamide], the IC50 in assay [1] (WST (CCK8)) was 1.6 nM; in assay [2] (WST (CCK8)) it was 2.1 nM; in assay [6] it was 0.9 nM. In assay [4], the “EGFR degradation” value is recorded as “obvious EGFR degradation efficacy”. In addition, the DC50 in assay [4] was around 50 nM.
Regarding `C=CC(=O)Nc1cc2c(Nc3ccc(F)c(Cl)c3)ncnc2cc1OCCCN1CCN(C(=O)CCCCCNc2cccc3c2C(=O)N(C2CCC(=O)NC2=O)C3=O)CC1` (stereo not shown) [SIAIS262125, N-(4-((3-chloro-4-fluorophenyl)amino)-7-(3-(4-(6-((2-(2,6-dioxopiperidin-3-yl)-1,3-dioxoisoindolin-4-yl)amino)hexanoyl)piperazin-1-yl)propoxy)quinazolin-6-yl)acrylamide], the IC50 in assay [1] (WST (CCK8)) is 0.3 nM; in assay [1] (setting [9]), 0.3 nM; in assay [2] (setting [9]), 1.3 nM; in assay [5] (72 hours, WST) it was below 25 nM; in assay [5] (setting [10]), 15 nM; in assay [3] (setting [11]), 79 nM. Moreover, the IC50 in assay [6] came to 9.6 nM. Also, the “antineoplastic activity (in words)” value in assay [6] (BT474 cells, 72 hours) was “better antineoplastic activity than the relative EGFR TKIs”. For the same compound, the “EGFR degradation” value in assay [4] is “obvious EGFR degradation efficacy”.
Consider `C=CC(=O)Nc1cc2c(Nc3ccc(F)c(Cl)c3)ncnc2cc1OCCCN1CCC(N2CCN(CCCCCCSc3cccc4c3CN(C3CCC(=O)NC3=O)C4=O)CC2)CC1` (stereo not shown) [SIAIS262180, N-(4-((3-chloro-4-fluorophenyl)amino)-7-(3-(4-(4-(6-((2-(2,6-dioxopiperidin-3-yl)-1-oxoisoindolin-4-yl)thio)hexyl)piperazin-1-yl)piperidin-1-yl)propoxy)quinazolin-6-yl)acrylamide], for which the IC50 turned out to be 4.2 nM in assay [1] (setting [9]); 10.2 nM in assay [2] (setting [9]); 24 nM in assay [5] (setting [10]); 570 nM in assay [3] (setting [11]); 4.4 nM in assay [6]. Moreover, the “EGFR degradation” value in assay [4] was “obvious EGFR degradation efficacy”.
In the case of `C=CC(=O)Nc1cc2c(Nc3ccc(F)c(Cl)c3)ncnc2cc1OCCCN1CCN(CCCCCCNc2cccc3c2C(=O)N(C2CCC(=O)NC2=O)C3=O)CC1` (stereo not shown) [SIAIS262182, N-(4-((3-chloro-4-fluorophenyl)amino)-7-(3-(4-(6-((2-(2,6-dioxopiperidin-3-yl)-1,3-dioxoisoindolin-4-yl)amino)hexyl)piperazin-1-yl)propoxy)quinazolin-6-yl)acrylamide], the IC50 is 1.4 nM in assay [1] (setting [9]); 11.1 nM in assay [2] (setting [9]); below 25 nM in assay [5] (72 hours, WST); 12 nM in assay [5] (setting [10]); 192 nM in assay [3] (setting [11]); 5 nM in assay [6]. Further, in assay [4], the “EGFR degradation” value is reported as “obvious EGFR degradation efficacy”.
As to `COc1cc2ncnc(Nc3ccc(F)c(Cl)c3)c2cc1NC(=O)/C=C/CN1CCCCC1` [dacomitinib, reference compound], the IC50 in assay [1] (WST (CCK8)) is 0.5 nM; in assay [2] (WST (CCK8)) it was 0.4 nM; in assay [5] (72 hours, WST), 834 nM; in assay [3] (setting [8]), 674 nM. The “EGFR degradation” value in assay [7] is “couldn't degrade EGFR”.

For the origin of these results see patent US12564638B2 (SHANGHAITECH UNIVERSITY, priority 2019, dated 2026).
